{"source": "paper PMC11143257", "about": "“Atomistic mechanism of coupling between cytosolic sensor domain and selectivity filter in TREK K2P channels” (Nature Communications, 2024)", "test_in_all_cases": "MTS probe modification, inside-out patch-clamp", "key": {"[1]": {"target": "T1, TREK-2* (Homo sapiens, UniProt P57789)", "T1 sequence (P57789 67-355 isoform P57789-4)": "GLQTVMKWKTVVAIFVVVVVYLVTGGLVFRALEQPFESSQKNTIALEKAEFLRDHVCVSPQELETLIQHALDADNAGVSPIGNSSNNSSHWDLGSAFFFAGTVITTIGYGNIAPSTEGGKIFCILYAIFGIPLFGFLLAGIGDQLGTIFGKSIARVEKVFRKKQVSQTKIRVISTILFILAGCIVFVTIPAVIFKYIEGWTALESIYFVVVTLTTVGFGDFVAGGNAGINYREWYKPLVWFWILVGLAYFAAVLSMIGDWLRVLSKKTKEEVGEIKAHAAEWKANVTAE", "format": "cell-based", "parameters": "was truncated from WT and includes amino acids 67 - 355; expressed in transfected cells; host or cells: Xenopus laevis oocytes (cRNA injection), excised inside-out patches", "conditions": "100 µM decyl-MTS for at least 30 s, symmetrical K+, pH 7.4, +40 mV", "procedure": "(§1) First, we measured WT TREK-1, WT TRAAK and TREK-2^* channels without modifiable cysteine residues as references. Upon application of 100 µM of decyl-MTS for at least 30 s to the respective channel in excised membrane patches, no change in current amplitudes was recognized (Fig. 2a and Supplementary Fig. 2a, b). Note, that patch integrity and channel regulation were tested with either 1 mM tetra-pentyl-ammonium (TPenA) and a short pHi activation step. Next, we conducted systematic cysteine scanning mutagenesis of the entire pCt and examined the effect of charged and aliphatic MTS probes. […] Remarkably, all hit residues face toward the inner leaflet of the lipid bilayer (Fig. 2b, inlay).\nIn this study, the coding sequences of human K2P2.1 TREK-1 (Genbank accession number: NM_172042), rat K2P2.1 TREK-1 (NM_172041.2), human K2P10.1 TREK-2 (NM_021161) and human K2P4.1 TRAAK (AF247042) were used. […]\n(§2) Xenopus laevis oocytes were surgically removed from anesthetized adult females, treated with type II collagenase (Sigma-Aldrich/Merck, Germany) and manually defolliculated. […] Currents were recorded with an EPC10 amplifier (HEKA electronics, Germany) and sampled at 10 kHz or higher and filtered with 3 kHz (-3 dB) or higher as appropriate for the sampling rate. […]"}, "[2]": {"test_system": "corresponding cysteine mutant channels in TREK-2", "format": "cell-based, human", "conditions": "TREK-2 cysteine mutant channels; decyl-MTS", "procedure": "as §1, §2\n(§3) The fold current increase (fold activation) of a ligand (decyl-MTS) was calculated from the following equation:1 FoldactivationFA=Iactivated/Ibasal with Iactivated represents the stable current level in the presence of 100 µM decyl-MTS and Ibasal the measured current before application of the MTS probe."}, "[3]": {"test_system": "corresponding cysteine mutant channels in TRAAK", "format": "cell-based, human", "conditions": "decyl-MTS", "procedure": "as §1, §2, §3"}}, "note": "Entries after “also recorded” stand apart in the source; their conditions may differ.", "data": [{"smiles": "CCCCCCCCCCSS(C)(=O)=O", "note": "[decyl-MTS, Decyl-MethaneThioSulfonate]", "values": [{"measurement": "effect on current amplitude", "setting": "[1]", "result": "no change; also recorded: no effect"}, {"measurement": "effect on current", "setting": "[2]", "result": "similarly activated"}, {"measurement": "effect on current", "setting": "[3]", "result": "similarly activated"}]}]}
